From PMC6718736, “Validation of in vitro methods for human cytochrome P450 enzyme induction: Outcome of a multi-laboratory study” (Toxicology in Vitro, 2019)
Read-outs that look alike come from different tables or passages of the source.

Experiments:
[1] = cited from earlier work
[2] = Solubility by nephelometry (EURL ECVAM); format: physicochemical; details: ECVAM nephelometry, ^2 = solubility limit
Excerpt: In addition to the visual inspection performed by the validation laboratories as described in the SOP, EURL ECVAM introduced nephelometry for systematic solubility determination of the 13 validation set chemicals. Nephelometry uses a laser beam and the principle of Tyndall effect light scatter to detect turbidity due to insolubility. The nephelometer method used formazin as reference item (1, 5, 10 and 20 nephelometric turbidity units (NTU)) to calculate the relative turbidity (RTU) of the validation set of chemicals. To the naked eye, 20 NTU is perceptible, while the nephelometer was sensitive to 5 NTU, with 1 NTU equivalent to background (solvent/medium blank).

[3] = Solubility by visual inspection (DMSO stock solution and assay medium); format: physicochemical; details: assay medium
Description: The SOPs relied on visual inspection for solubility observation. […] The absence of precipitation in the medium was checked pre- and post-incubation (24 hours) by centrifugation of the sample and observation of any precipitation (pellet residue).

[4] = human in vivo plasma concentration, normal dose
[5] = human in vivo, normal dose (Table 10)

| SMILES | Cmax [1, 4] [µM] | Cmax [1, 5] [µM] | HepaRG medium stability ([2]; HepaRG medium) [µg/mL] | PHH medium stability ([2]; PHH medium) [µg/mL] | HepaRG medium stability ([3]; Lab 1, visual observation) [µg/mL] | HepaRG medium stability ([3]; Lab 2, visual observation) [µg/mL] | HepaRG medium stability ([3]; Lab 3, visual observation) [µg/mL] | PHH medium stability ([3]; Lab 4, visual observation) [µg/mL] | PHH medium stability ([3]; Lab 5, visual observation) [µg/mL] | PHH medium stability ([3]; Lab 6, visual observation) [µg/mL] |
| --- | --- | --- | --- | --- | --- | --- | --- | --- | --- | --- |
| CC1(C)S[C@@H]2[C@H](NC(=O)Cc3ccccc3)C(=O)N2[C@H]1C(=O)O [Penicillin G sodium] | 36 | 36 | 40 | 40 | 40 | 40 | 40 | 40 | 40 | 20 |
| C[C@@H]1CC[C@H]2[C@@H](C)C(=O)O[C@@H]3O[C@@]4(C)CC[C@@H]1[C@]32OO4 [Artemisinin] | 1 to 2 | 1 to 2 |  |  |  |  |  |  |  |  |
